Data published in US9879303B2, “Chromogenic glucuronidase substrates and uses” (Glycosynth Limited, priority 2013, dated 2018).
Where a name gives a salt, the structure may show the parent alone.

System: E. coli clinical isolates
Experiment: screen of strains in broth medium containing FAC
Format: cell-based
Parameters: key to colour: Red, Green, Black or Purple mean strong colour; Red, Green, Black or Purple mean strong colour; Red, Green, Black or Purple mean strong colour; Red, Green, Black or Purple mean strong colour; +/− means less colour than strong; Tr means a trace of colour, less than +/−; — means no colour
Conditions: for colour: 37° C. 18 hours
Excerpt: In order to obtain a fuller picture of the sensitivity of the substrates, they were screened with 100 different clinical isolates of E. coli in a liquid medium containing FAC. The isolates were chosen at random from the Microbiology Department, Freeman Hospital, Newcastle Upon Tyne, UK. The effectiveness of the new substrates was compared with three other media which all contained indoxyl-β-D-glucuronides. One was a commercial medium, CPS ID 3 (bioMérieux SA, Lyon, France). […] This medium was employed as a control. Among the β-D-glucuronidase producing strains of E. coli there is a large variation in the quantity of the enzyme produced and it is almost certain that the CPS ID 3 medium has been rigorously optimised to allow good growth of all the target organisms and maximum expression of the target enzymes. Therefore, two indoxyl glucuronides, X-β-D-glucuronide CHA salt and Rose-β-D-glucuronide CHA salt were also tested in a simple agar medium to allow a direct comparison of the sensitivity of these Indoxyl glucuronides when used in a medium that has not been optimised for the growth of the target organism. The comparison of the results for Rose-β-D-glucuronide and the CPS ID 3 medium was of particular significance as the commercial medium also uses Rose-β-D-glucuronide for the detection of E. coli. For consistency, the four glucuronides were all chosen as their CHA salts. As already stated, it is not anticipated that the salt form is critical to their performance. Currently. X-β-D-glucuronide is often used as either the CHA salt or the sodium salt. Brenner and colleagues [K. P. Brenner et al, Appl. Environ. Microbiol., 59, 3534-3544, (1993)] found no difference in the performance of the CHA and sodium salt forms with their application using indoxyl-β-D-glucuronide, neither in respect of colour development nor in the recovery of E. coli.
The two indoxyl glucuronides used produce insoluble endpoints following hydrolysis, as does the CPS ID 3 medium. It was therefore necessary to test these two substrates on agar plates. In contrast, catechol-β-D-glucuronide (1) and DHN-β-D-glucuronide (2b) give much more soluble endpoints best suited to liquid media and were therefore tested in a broth medium. Each broth was prepared using proteose peptone (Oxoid, Basingstoke, UK) (2 g), NaCl (1 g) and FAC (100 mg) in DI water (180 mL). This mixture was autoclaved and cooled to room temperature before being dispensed into bijoux (100×1.8 mL). Catechol β-D-glucuronide CHA salt (1) or DHN-β-D-glucuronide CHA salt (2b) (60 mg) were each dissolved in water (20 mL) and filtered to sterilize before being aseptically dispensed into successive bijoux (0.2 mL) containing the broth solution. The broth/substrate solutions were then inoculated with bacterial suspensions made up to 0.5 McFarland standard (2 μL per bijoux). X-β-D-glucuronide CHA salt (Glycosynth Ltd, Warrington, UK) (10 mg) was dissolved in NMP (200 μL). Rose-β-D-glucuronide CHA salt (Glycosynth Ltd, Warrington, UK) (20 mg) was dissolved in NMP (200 μL). These solutions were then added to Columbia agar (Oxoid, Basingstoke, UK) (100 mL) and inoculated with bacterial suspensions made up to 0.5 McFarland standard (1 μL). The plates and broths were incubated at 37° C. for 18 hours in air.

[1] = 100 E. coli strains after 18 h incubation, broth

Q: How did the “% Sensitivity” value [1] turn out when O=C(O)C1OC(Oc2ccccc2O)C(O)C(O)C1O [Compound 1, Catechol β-D-Glucuronide CHA Salt] was run?
A: The value was 83%.

Q: And the Negative strains [1]?
A: The Negative strains was 17.

Q: What about the Positive strains [1] of the same compound?
A: Its Positive strains is 83.

Q: What about the colour (E. coli 260262P, broth) of the same compound?
A: The colour was “Black”.

Q: What about the colour (E. coli 260280Z, broth) of the same compound?
A: Its colour is “Black”.

Q: What about the colour (E. coli 260310H, broth) of the same compound?
A: The colour was “Black”.

Q: And the colour (E. coli 260313A, broth)?
A: Its colour is “—”.

Q: And the colour (E. coli 260316T, broth)?
A: The colour was “—”.

Q: What about the colour (E. coli 260327V, broth) of the same compound?
A: The colour was “Black”.

Q: And the colour (E. coli 260330Y, broth)?
A: The colour was “Black”.

Q: What about the colour (E. coli 260333P, broth) of the same compound?
A: Its colour is “—”.

Q: And the colour (E. coli 260345F, broth)?
A: Its colour is “Black”.

Q: What about the colour (E. coli 260348K, broth) of the same compound?
A: The colour was “Black”.

Q: What about the colour (E. coli 260354W, broth) of the same compound?
A: Its colour is “Black”.

Q: And the colour (E. coli 260364H, broth)?
A: Its colour is “Black”.

Q: And the colour (E. coli 260370C, broth)?
A: Its colour is “Black”.

Q: And the colour (E. coli 260375E, broth)?
A: The colour was “Black”.

Q: What about the colour (E. coli 260390B, broth) of the same compound?
A: The colour was “—”.

Q: And the colour (E. coli 260396Z, broth)?
A: The colour was “Black”.

Q: What about the colour (E. coli 260398Q, broth) of the same compound?
A: The colour was “Black”.

Q: And the colour (E. coli 260400N, broth)?
A: The colour was “—”.

Q: And the colour (E. coli 260401Q, broth)?
A: The colour was “Black”.

Q: And the colour (E. coli 260402H, broth)?
A: The colour was “Black”.

Q: And the colour (E. coli 260404W, broth)?
A: Its colour is “Black”.

Q: And the colour (E. coli 260405P, broth)?
A: The colour was “Black”.

Q: And the colour (E. coli 260406A, broth)?
A: Its colour is “—”.

Q: And the colour (E. coli 260406Y, broth)?
A: The colour was “Black”.

Q: And the colour (E. coli 260407F, broth)?
A: The colour was “Black”.

Q: And the colour (E. coli 260408C, broth)?
A: The colour was “Black”.

Q: What about the colour (E. coli 260411Z, broth) of the same compound?
A: Its colour is “Black”.

Q: What about the colour (E. coli 260412Q, broth) of the same compound?
A: Its colour is “Black”.

Q: And the colour (E. coli 260414H, broth)?
A: Its colour is “Black”.

Q: And the colour (E. coli 260415Y, broth)?
A: The colour was “Black”.

Q: What about the colour (E. coli 260416W, broth) of the same compound?
A: Its colour is “Black”.

Q: What about the colour (E. coli 260417P, broth) of the same compound?
A: Its colour is “Black”.

Q: And the colour (E. coli 260422Y, broth)?
A: Its colour is “Black”.

Q: And the colour (E. coli 260424P, broth)?
A: Its colour is “Black”.

Q: What about the colour (E. coli 260425A, broth) of the same compound?
A: The colour was “Black”.

Q: What about the colour (E. coli 260426F, broth) of the same compound?
A: The colour was “Black”.

Q: And the colour (E. coli 260428T, broth)?
A: The colour was “Black”.

Q: And the colour (E. coli 260431N, broth)?
A: The colour was “Black”.

Q: And the colour (E. coli 260432E, broth)?
A: The colour was “Black”.

Q: What about the colour (E. coli 260433H, broth) of the same compound?
A: Its colour is “Black”.

Q: What about the colour (E. coli 260434Y, broth) of the same compound?
A: Its colour is “Black”.

Q: What about the colour (E. coli 260435W, broth) of the same compound?
A: The colour was “Black”.

Q: What about the colour (E. coli 260436P, broth) of the same compound?
A: Its colour is “Black”.

Q: What about the colour (E. coli 260437A, broth) of the same compound?
A: The colour was “—”.

Q: And the colour (E. coli 260438F, broth)?
A: The colour was “Black”.

Q: And the colour (E. coli 260439C, broth)?
A: The colour was “Black”.

Q: And the colour (E. coli 260440S, broth)?
A: The colour was “Black”.

Q: And the colour (E. coli 260441G, broth)?
A: Its colour is “Black”.

Q: And the colour (E. coli 260458Y, broth)?
A: Its colour is “Black”.

Q: What about the colour (E. coli 260459W, broth) of the same compound?
A: Its colour is “Black”.

Q: What about the colour (E. coli 260463D, broth) of the same compound?
A: The colour was “Black”.

Q: And the colour (E. coli 260464G, broth)?
A: Its colour is “Black”.

Q: What about the colour (E. coli 260471B, broth) of the same compound?
A: The colour was “—”.

Q: And the colour (E. coli 260478N, broth)?
A: Its colour is “—”.

Q: What about the colour (E. coli 260479Q, broth) of the same compound?
A: Its colour is “Black”.

Q: What about the colour (E. coli 260480M, broth) of the same compound?
A: Its colour is “Black”.

Q: What about the colour (E. coli 260481J, broth) of the same compound?
A: Its colour is “Black”.

Q: What about the colour (E. coli 260483R, broth) of the same compound?
A: The colour was “—”.

Q: What about the colour (E. coli 260485D, broth) of the same compound?
A: Its colour is “Black”.

Q: And the colour (E. coli 260486L, broth)?
A: The colour was “Black”.

Q: And the colour (E. coli 260492J, broth)?
A: Its colour is “Black”.

Q: What about the colour (E. coli 260494B, broth) of the same compound?
A: Its colour is “Black”.

Q: What about the colour (E. coli 260495R, broth) of the same compound?
A: The colour was “Black”.

Q: What about the colour (E. coli 260497D, broth) of the same compound?
A: Its colour is “Black”.

Q: What about the colour (E. coli 260502G, broth) of the same compound?
A: The colour was “Black”.

Q: What about the colour (E. coli 260503Z, broth) of the same compound?
A: Its colour is “Black”.

Q: What about the colour (E. coli 260504N, broth) of the same compound?
A: The colour was “Black”.

Q: And the colour (E. coli 260505Q, broth)?
A: Its colour is “—”.

Q: What about the colour (E. coli 260506E, broth) of the same compound?
A: The colour was “Black”.

Q: What about the colour (E. coli 260508Y, broth) of the same compound?
A: The colour was “Black”.

Q: What about the colour (E. coli 260509W, broth) of the same compound?
A: Its colour is “Black”.

Q: And the colour (E. coli 260510R, broth)?
A: The colour was “Black”.

Q: What about the colour (E. coli 260511X, broth) of the same compound?
A: Its colour is “Black”.

Q: What about the colour (E. coli 260514G, broth) of the same compound?
A: Its colour is “—”.

Q: What about the colour (E. coli 260515Z, broth) of the same compound?
A: Its colour is “Black”.

Q: And the colour (E. coli 260521S, broth)?
A: Its colour is “Black”.

Q: What about the colour (E. coli 260522Z, broth) of the same compound?
A: Its colour is “Black”.

Q: And the colour (E. coli 260532S, broth)?
A: The colour was “Black”.

Q: And the colour (E. coli 260533G, broth)?
A: The colour was “Black”.

Q: What about the colour (E. coli 260536Q, broth) of the same compound?
A: The colour was “Black”.

Q: What about the colour (E. coli 260537E, broth) of the same compound?
A: Its colour is “—”.

Q: And the colour (E. coli 260538H, broth)?
A: The colour was “—”.

Q: What about the colour (E. coli 260539Y, broth) of the same compound?
A: The colour was “Black”.

Q: What about the colour (E. coli 260541R, broth) of the same compound?
A: The colour was “Black”.

Q: What about the colour (E. coli 260545G, broth) of the same compound?
A: Its colour is “Black”.

Q: And the colour (E. coli 260547N, broth)?
A: The colour was “Black”.

Q: What about the colour (E. coli 260548Q, broth) of the same compound?
A: Its colour is “Black”.

Q: What about the colour (E. coli 260549E, broth) of the same compound?
A: The colour was “Black”.

Q: And the colour (E. coli 260553X, broth)?
A: The colour was “—”.

Q: What about the colour (E. coli 260554D, broth) of the same compound?
A: The colour was “Black”.

Q: What about the colour (E. coli 260555L, broth) of the same compound?
A: Its colour is “Black”.

Q: And the colour (E. coli 260563B, broth)?
A: The colour was “Black”.

Q: And the colour (E. coli 260564R, broth)?
A: Its colour is “Black”.

Q: And the colour (E. coli 260578D, broth)?
A: The colour was “—”.

Q: And the colour (E. coli 2603121P, broth)?
A: Its colour is “—”.

Q: And the colour (E. coli 2604399E, broth)?
A: The colour was “Black”.

Q: What about the colour (E. coli O157 non-toxigenic, broth) of the same compound?
A: Its colour is “—”.

Q: And the “colour of positive solutions” value (broth with FAC, in words)?
A: The value was “greyish-black solutions, sometimes with black flakes”.
